Measurements: patent US6579718B1, “Carbazolylvinyl dye protein stains” (Molecular Probes, Inc., priority 2000, dated 2003)

Legend:
BSA = BSA (Bos taurus, UniProt P02769); assay: Absorbance/emission spectra, fluorescence enhancement and quantum yield of dyes in solution +/- BSA (Example 21); assay type: physicochemical, bovine; settings: for ABS λ max, BSA / EM λ max, BSA / FE (fluorescence enhancement, BSA) / Quantum Yield (BSA): 150 μg/mL BSA; for ABS λ max, BSA / EM λ max, BSA / ABS λ max, unbound / EM λ max, unbound: 10 mM Tris-HCl, pH 7.5, 0.05% SDS; for FE (fluorescence enhancement, BSA): 0.05% SDS, at emission maxima; for FE (fluorescence enhancement, BSA) / Quantum Yield (BSA): 470 nm excitation; for Quantum Yield (BSA): relative to fluorescein in 0.1 M NaOH; for ABS λ max, unbound / EM λ max, unbound: dye without BSA
Chain of BSA (P02769 25-607): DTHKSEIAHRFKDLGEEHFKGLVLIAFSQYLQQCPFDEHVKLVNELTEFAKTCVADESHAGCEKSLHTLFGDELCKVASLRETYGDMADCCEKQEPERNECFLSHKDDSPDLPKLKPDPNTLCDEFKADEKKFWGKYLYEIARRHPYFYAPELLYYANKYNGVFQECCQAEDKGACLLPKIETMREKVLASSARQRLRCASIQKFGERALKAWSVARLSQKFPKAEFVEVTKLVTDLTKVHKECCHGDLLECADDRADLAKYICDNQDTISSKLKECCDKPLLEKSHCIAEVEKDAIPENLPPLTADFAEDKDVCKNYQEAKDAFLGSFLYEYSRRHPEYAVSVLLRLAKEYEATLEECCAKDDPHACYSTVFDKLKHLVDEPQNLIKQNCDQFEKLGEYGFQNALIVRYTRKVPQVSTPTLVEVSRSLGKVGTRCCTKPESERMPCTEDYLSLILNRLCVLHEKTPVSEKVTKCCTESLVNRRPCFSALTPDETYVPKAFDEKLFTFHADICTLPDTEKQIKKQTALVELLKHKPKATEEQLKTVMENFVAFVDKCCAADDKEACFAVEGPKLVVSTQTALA
Procedure: A particular dye of this invention is generally selected for a particular assay using one or more of the following criteria: sensitivity to poly(amino acids), insensitivity to the presence of nucleic acids, dynamic range, photostability, staining time, and spectral properties. […] Although the fluorescence enhancements and quantum yields are low to moderate in solution, some are significant relative to the long wavelength emission maxima (see Table 1 and Example 21).
Measurements are performed using −1 μM dye+/−150 μg/mL BSA in 10 mM Tris-HCl, pH 7.5,+0.05% SDS with a 2.0 mL sample volume. Fluorescence enhancements are calculated at emission maxima in a standard fluorometer using 470 nm excitation. Fluorescence quantum yields are determined relative to fluorescein (in 0.1 M NaOH), using 470 nm excitation.

[1] = system: broad-range protein molecular weight markers; assay: Staining of broad-range molecular weight protein standards in SDS-polyacrylamide gels (Example 22, FIG. 2, 3); settings: regardless of the buffer
Procedure: FIG. 2: Intensity profile comparison after staining broad-range protein molecular weight markers with SYPRO Orange dye in 7% acetic acid and phosohate-buffered saline. FIG. 2A.) Profile obtained with SYPRO Orange dye in 7% acetic acid. FIG. 2B.) Profile obtained with SYPRO Orange dye in 50 mM sodium phosphate, 150 mM sodium chloride, pH 7.0. Grey scale values of the fluorescence signals were inverted prior to obtaining the traces to facilitate evaluation of the peaks.
FIG. 3: Intensity profile comparison after staining broad-range protein molecular weight markers with Compound 9 in 7% acetic acid and phosphate-buffered saline. FIG. 3A.) Profile obtained with Compound 9 in 7% acetic acid. FIG. 3B.) Profile obtained with Compound 9 in 50 mM sodium phosphate, 150 mM sodium chloride, pH 7.0. Grey scale values of the fluorescence signals were inverted prior to obtaining the traces to facilitate evaluation of the peaks.
SDS-polyacrylamide gel electrophoresis is performed by standard methods utilizing 4% T, 2.6% C stacking gels, pH 6.8 and 15% T, 2.6% C separating gels, pH 8.8. % T is the total monomer concentration expressed in grams per 100 mL and % C is the percentage crosslinker. A staining solution of Compound 9 is prepared by diluting a stock solution that 5 is […] dye in DMSO in either 7.5% acetic acid or 50 mM Na2HPO4, 150 mM NaCl, pH 7.0 with vigorous mixing. Alternatively, a wide range of buffers are compatible with staining, including but not limited to formate, pH 4.0; citrate, pH 4.5; acetate, pH 5.0; MES, pH 6.0;
imidazole, pH 7.0; HEPES, pH 7.5; Tris acetate, pH 8.0; Tris-HCl, pH 8.5; Tris borate, 20 mM EDTA, pH 9.0; and bicarbonate, pH 10.0. Buffers should be prepared as 50-100 mM 10 solutions containing about 150 mM NaCl. Approximately 50-75 mL of staining solution is used for a typical mini-gel (5 cm×9 cm×1 mm). The gel is placed into the staining solution and the container is covered with aluminum foil to protect the dye from bright light. The gel is gently agitated for at least 30 minutes at room temperature using an orbital shaker (50:RPM). After staining, the gel is briefly dipped in water and visualized on a UV light box. […] As little as 1 ng of protein may be visualized when the fluorescent image is recorded by photography using a cellophane 490-nm long pass filter. […] In the latter buffer, protein bands are barely detectable above background fluorescence with these latter dyes.

[2] = system: amino acid homo- and hetero-polymers; assay: Dye staining of amino acid homo- and hetero-polymers copolymerized into polyacrylamide gel discs; settings: gel discs with 0.1% SDS; no asterisk = moderate
Excerpt: The specificity of protein detection of the present method can be compared to that of silver, CBB, SYPRO Orange dye and SYPRO Red dye staining for a variety of synthetic poly(amino acids) copolymerized into a polyacrylamide gel matrix. To do this, homopolymers of L-arginine, asparagine, histidine, lysine, aspartate, glutamate, alanine, glycine, isoleucine, leucine, methionine, serine, threonine, tryptophan, tyrosine and proline are copolymerized into 15% T, 2.6% C polyacrylamide gels at a concentration of […]. Except when indicated, 0.1% sodium dodecyl sulfate is included in the polyacrylamide solution as well. The amino acid heteropolymers, poly(glutamate, alanine, tyrosine), poly(glutamate, tyrosine), poly(lysine, tyrosine), poly(glutamate, lysine, tyrosine), and poly(arginine, tyrosine) are copolymerized into polyacrylamide gels in an identical manner as the homopolymers. Blank gels containing no polymer are prepared for reference. The co-polymerized gels are cut into discs using the large end of a 1000 microliter pipet tip (Sorenson Bioscience, Inc., West Salt. Lake City, Utah) and stained in Falcon 48 well flat bottom tissue culture plates (Becton-Dickinson, Franklin Lakes, N.J.) on an orbital shaker operating at 50 RPM. Gel discs are quantified on a Roche Lumi-Imager system (Indianapolis, Ind.) and classified into three groups based upon staining intensity (strong, moderate, or weak staining).

CCOCC(=O)CCC[n+]1ccc(/C=C/c2ccc3c(c2)c2ccccc2n3CC)c2ccccc21.[Br-] [Compound 10]
ABS λ max, BSA (BSA): 492 nm | EM λ max, BSA (BSA): 612 nm | FE (fluorescence enhancement, BSA) (BSA): 110 fold | Quantum Yield (BSA) (BSA): 0.21 | ABS λ max, unbound (BSA): 468 nm | EM λ max, unbound (BSA): ~700 nm

CCn1c2ccccc2c2cc(/C=C/c3cc[n+](CCCC(=O)O)c4ccccc34)ccc21.[Cl-] [Compound 11]
ABS λ max, BSA (BSA): 483 nm | EM λ max, BSA (BSA): 609 nm | FE (fluorescence enhancement, BSA) (BSA): 104 fold | Quantum Yield (BSA) (BSA): 0.21 | ABS λ max, unbound (BSA): 475 nm | EM λ max, unbound (BSA): ~700 nm

CCn1c2ccccc2c2cc(/C=C/c3ccc4ccccc4[n+]3CCCCS(=O)(=O)[O-])ccc21 [Compound 12]
ABS λ max, BSA (BSA): 453 nm | EM λ max, BSA (BSA): 587 nm | FE (fluorescence enhancement, BSA) (BSA): 34 fold | Quantum Yield (BSA) (BSA): 0.10 | ABS λ max, unbound (BSA): 441 nm | EM λ max, unbound (BSA): 679 nm

CCn1c2ccccc2c2cc(/C=C/c3cc[n+](CCCS(=O)(=O)[O-])cc3)ccc21 [Compound 13]
Appearance of stained proteins on UV light box [1]: very bright yellow bands against an orange background | EM λ max, BSA (BSA): 553 nm | FE (fluorescence enhancement, BSA) (BSA): 15 fold | Quantum Yield (BSA) (BSA): 0.24 | EM λ max, unbound (BSA): 588 nm

CCn1c2ccccc2c2cc(/C=C/c3sc4ccccc4[n+]3CCCS(=O)(=O)[O-])ccc21 [Compound 14]
ABS λ max, BSA (BSA): 464 nm | EM λ max, BSA (BSA): 576 nm | FE (fluorescence enhancement, BSA) (BSA): 15 fold | Quantum Yield (BSA) (BSA): 0.08 | ABS λ max, unbound (BSA): 448 nm | EM λ max, unbound (BSA): 638 nm

O=S(=O)([O-])CCCC[n+]1ccc(/C=C/c2ccc3c(c2)c2ccccc2n3-c2ccccc2)c2ccccc21 [Compound 15]
ABS λ max, BSA (BSA): 469 nm | EM λ max, BSA (BSA): 591 nm | FE (fluorescence enhancement, BSA) (BSA): 52 fold | Quantum Yield (BSA) (BSA): 0.25 | ABS λ max, unbound (BSA): 468 nm | EM λ max, unbound (BSA): 670 nm

CCCCc1cc(/C=C/c2ccc3c(c2)c2ccccc2n3CC)c2ccccc2[n+]1-c1ccccc1.[Cl-] [Compound 16]
ABS λ max, BSA (BSA): 491 nm | EM λ max, BSA (BSA): 623 nm | FE (fluorescence enhancement, BSA) (BSA): 25 fold | Quantum Yield (BSA) (BSA): 0.17 | ABS λ max, unbound (BSA): 480 nm | EM λ max, unbound (BSA): 676 nm

CCn1c2ccccc2c2cc(/C=C/c3ccc4cc(OC)ccc4[n+]3C)ccc21 [Compound 17]
EM λ max, BSA (BSA): ~610 nm | FE (fluorescence enhancement, BSA) (BSA): 2.5 fold | Quantum Yield (BSA) (BSA): 0.04 | EM λ max, unbound (BSA): 679 nm

CCn1c2ccccc2c2cc(/C=C/C3=[N+](CCCCCC(=O)O)c4ccc(S(=O)(=O)[O-])cc4C3(C)C)ccc21 [Compound 18]
ABS λ max, BSA (BSA): 502 nm | EM λ max, BSA (BSA): 590 nm | FE (fluorescence enhancement, BSA) (BSA): 3.0 fold | Quantum Yield (BSA) (BSA): 0.01 | ABS λ max, unbound (BSA): 503 nm | EM λ max, unbound (BSA): 611 nm

CCOc1ccc(Nc2ccc(C(=C3C=CC(=[N+](CC)Cc4cccc(S(=O)(=O)[O-])c4)C=C3)c3ccc(N(CC)Cc4cccc(S(=O)(=O)[O-])c4)cc3)cc2)cc1.[Na+] [Coomassie Blue-R]
Staining intensity, Arg homopolymer [2]: Arg* | Staining intensity, Arg:Tyr heteropolymer [2]: Arg:Tyr* | Staining intensity, Glu:Lys:Tyr heteropolymer [2]: Glu:Lys:Tyr* | Staining intensity, His homopolymer [2]: His | Staining intensity, Ile homopolymer [2]: Ile | Staining intensity, Lys homopolymer [2]: Lys* | Staining intensity, Lys:Tyr heteropolymer [2]: Lys:Tyr*

Silver
Staining intensity, Glu:Lys:Tyr heteropolymer [2]: Tyr* | Staining intensity, Ile homopolymer [2]: Ile | Staining intensity, Lys homopolymer [2]: Lys* | Staining intensity, Lys:Tyr heteropolymer [2]: Lys:Tyr*
